The conditions of series [1]: cited from earlier work.
A short description of series [2]: Stability test of the fulvestrant solution in acetic acid during 6 hours at room temperature (HPLC titer and impurities). The class given is physicochemical. To be noted: fulvestrant in glacial acetic acid. The method, then: To a 10 mL beaker, fitted with a magnetic stirrer, 2.5 mL glacial acetic acid, Merck lot K 36685863, is added.
Fifty mg Fulvestrant from Scinopharm, lot#70850AA003 were weighed using an Ohaus model Adventurer balance.
Stirring of acetic acid is started and Fulvestrant is slowly added which is rapidly dissolved. After all Fulvestrant was added stirring is continued for 5 minutes.
Stirring is stopped and the solution is left at room temperature for 6 hours, then dissolution is analyzed in terms of titer and purity by HPLC, and compared to Scinopharm Fulvestrant as used for manufacturing the lyophilizate. HPLC determinations were carried out on an HPLC Waters with a Waters 1525 binary pump, Waters 717 autosampler, and a Waters 2996 diode array detector; the HPLC column used for determining titer and purity is an Agilent Eclipse XDB-C8 3.5 u 4.6×150 Rapid Res column; the chromatographic method corresponds to US Pharmacopeia (USP, 34 (2011)) monograph for Fulvestrant.

Series [3] in a line: Dissolution / reconstitution time at 50 mg/mL in castor oil, ethanol and benzyl alcohol solvent (benzyl benzoate-free). The class given is physicochemical. To be noted: solvent of castor oil and benzyl benzoate-free alcohol mixtures. The method, then: The lyophilizate should be reconstituted within a reasonable period, typically of less than 2 minutes (5); if reconstitution time is excessive, that is, more than 3 minutes, the user may get impatient or frustrated (6). […] This comparison was performed by dissolving fulvestrant at a concentration of 50 mg/mL, using a solvent comprising castor oil and benzyl benzoate-free alcohol mixtures.
A 50 mL Schott, type I, glass vial is placed on an Ohaus Adventurer balance. Then, 3.12 g Merck ethanol, 4.17 g Sigma-Aldrich benzyl alcohol and 12.70 g Sigma-Aldrich castor oil are added.
With the aid of a 1000 uL Eppendorf Research micropipette, 5 mL of the previously prepared solvent was added into an 11 mL Nuova Ompi type I of glass vial. The vial is capped with a solution S-additive plug from WestPharma and crimped with an aluminum seal.
The process for reconstituting a vial of lyophilizate of example 1 with the solvent of said example, using a Needle-less Transfer System Transfer Device 20/20 w/150 mic Filter Sterile from Westpharma, FIG. 9, is as follows:
10. The complete content of the syringe is discharged into the lyophilizate vial. […]
Using a Sper Scientific timer, it was determined that less than 90 seconds were required for reconstituting the lyophilizate. […]
It was determined that more than 60 minutes were required to completely dissolve Fulvestrant in the solvent using a Sper Scientific timer.

In the case of `C[C@]12CC[C@@H]3c4ccc(O)cc4C[C@@H](CCCCCCCCC[S+]([O-])CCCC(F)(F)C(F)(F)F)[C@H]3[C@@H]1CC[C@@H]2O` (some centres unmarked) [Fulvestrant], in series [1] (carrier of US 6,774,122), the “solubility in castor oil with organic solvents (alcohol) and a non-aqueous ester-type solvent” value is recorded as “at least 50 mg/mL”. Besides, the solubility in ethanol entry in series [1] (ethanol, ref (3) US 6,774,122) was “highly soluble”. The “fulvestrant solubility in propylene glycol” value in series [1] (propylene glycol, according to ref (7) US 2009/0227549) was 4000 µg/mL. Further, the solubility in tert-butanol result in series [1] (tert-butanol, ref (7)) is recorded as “highly soluble”. In addition, in series [1] (water, ref (3)), the solubility in water result was “practically insoluble”. Besides, in series [2], the “titer of the solution” value is listed as 99.2% and the “total impurities in the solution” value came out at 0.1%. For the same compound, the dissolution time result in series [3] is “more than 60 minutes”.

These data come from patent US9029582B2, “Pharmaceutical composition” (Capital, Business Y Gestion de Finanzas S.L., priority 2011, dated 2015).
